Measurements taken from publication PMC8908738 (2022).

How the values were obtained:
[1] = tested on: 5'ATP aptamer-bridge (DNA, aptamer) CTAGCGAGCGAACTTTACCTGGGGGAGTATTGCGGAGGAAGGT; test: CD of origami-AuNR probe, single concentration; conditions: 5 mM Mg2+, PBS, room temperature, overnight, up to 1 mM
[2] = tested on: 5'ATP aptamer-bridge (DNA, aptamer) CTAGCGAGCGAACTTTACCTGGGGGAGTATTGCGGAGGAAGGT; test: CD of origami-AuNR probe, competitive hybridization, complementary strand length varied; conditions: 5 mM Mg2+, PBS, room temperature, overnight, 1 mM ATP, displaced 5'ATPCS9-12, R^2 0.96
[3] = tested on: 5'ATP aptamer-bridge (DNA, aptamer) CTAGCGAGCGAACTTTACCTGGGGGAGTATTGCGGAGGAAGGT; test: CD of origami-AuNR probe, competitive hybridization, ATP concentration varied; conditions: 5 mM Mg2+, PBS, room temperature, overnight, ATP 1 μM to 1 mM, displaced 5'ATPCS9 (n = 9)
[4] = tested on: 5'glucose aptamer-bridge (DNA, aptamer) CTAGCGAGCGAACTTTACGACCGTGTGTGTTGCTCTGTAACAGTGTCCATTGTCGT; test: CD of origami-AuNR probe, single concentration; conditions: 5 mM Mg2+, PBS, room temperature, overnight, up to 100 mM fructose, displaced 5' strand n = 10
[5] = tested on: 5'glucose aptamer-bridge (DNA, aptamer) CTAGCGAGCGAACTTTACGACCGTGTGTGTTGCTCTGTAACAGTGTCCATTGTCGT; test: CD of origami-AuNR probe, competitive hybridization, complementary strand length varied; conditions: 5 mM Mg2+, PBS, room temperature, overnight, 100 mM glucose, displaced 5'gluCS8-12, R^2 0.99

## Nc1ccn([C@@H]2O[C@H](COP(=O)(O)OP(=O)(O)OP(=O)(O)O)[C@@H](O)[C@H]2O)c(=O)n1
[1]; displaced 5'ATPCS9, CD change 2.1% (ATP 53.7%)
  binding: no

## Nc1nc2c(ncn2[C@@H]2O[C@H](COP(=O)(O)OP(=O)(O)OP(=O)(O)O)[C@@H](O)[C@H]2O)c(=O)[nH]1
[1]; displaced 5'ATPCS9, CD change 3.6% (ATP 53.7%)
  binding: no

## Nc1ncnc2c1ncn2[C@@H]1O[C@H](COP(=O)(O)OP(=O)(O)OP(=O)(O)O)[C@@H](O)[C@H]1O
[2]
  KD2^ATP: 5.71 ± 0.865 µM
[3]
  KD2^ATP: 4.54 ± 0.580 µM

## OCC1(O)OC[C@@H](O)[C@@H](O)[C@@H]1O (stereo partly drawn)
[4]
  binding: no

## OC[C@H]1OC(O)[C@H](O)[C@@H](O)[C@@H]1O (stereo partly drawn)
[5]
  KD2^glu: 5.57 ± 0.436 mM
